Test results reported in ChEMBL document CHEMBL3792292, “Development of a potent and selective FLT3 kinase inhibitor by systematic expansion of a non-selective fragment-screening hit” (Bioorg Med Chem Lett, 2016).
Converted amounts (≈) assume the structure as drawn. The source made the active and inactive calls. The calls are words filed in the database; no cut-off is given here.

Columns and labels:
[1] = molecular target: Receptor-type tyrosine-protein kinase FLT3 (Homo sapiens) (UniProt P36888); assay: Inhibition of human N-terminal GST-tagged FLT3 cytoplasmic domain (564 to 993 residues) expressed in baculovirus expression system using fluorescence labelled srctide as substrate at 50 times IC50 by electrophoretic mobility shift assay relative to control
[2] = molecular target: T1, Receptor-type tyrosine-protein kinase FLT3 (Homo sapiens, UniProt P36888); assay: Inhibition of human N-terminal GST-tagged FLT3 cytoplasmic domain (564 to 993 residues) expressed in baculovirus expression system using fluorescence labelled srctide as substrate by mobility shift assay in presence of ATP
T1 sequence (P36888 whole entry): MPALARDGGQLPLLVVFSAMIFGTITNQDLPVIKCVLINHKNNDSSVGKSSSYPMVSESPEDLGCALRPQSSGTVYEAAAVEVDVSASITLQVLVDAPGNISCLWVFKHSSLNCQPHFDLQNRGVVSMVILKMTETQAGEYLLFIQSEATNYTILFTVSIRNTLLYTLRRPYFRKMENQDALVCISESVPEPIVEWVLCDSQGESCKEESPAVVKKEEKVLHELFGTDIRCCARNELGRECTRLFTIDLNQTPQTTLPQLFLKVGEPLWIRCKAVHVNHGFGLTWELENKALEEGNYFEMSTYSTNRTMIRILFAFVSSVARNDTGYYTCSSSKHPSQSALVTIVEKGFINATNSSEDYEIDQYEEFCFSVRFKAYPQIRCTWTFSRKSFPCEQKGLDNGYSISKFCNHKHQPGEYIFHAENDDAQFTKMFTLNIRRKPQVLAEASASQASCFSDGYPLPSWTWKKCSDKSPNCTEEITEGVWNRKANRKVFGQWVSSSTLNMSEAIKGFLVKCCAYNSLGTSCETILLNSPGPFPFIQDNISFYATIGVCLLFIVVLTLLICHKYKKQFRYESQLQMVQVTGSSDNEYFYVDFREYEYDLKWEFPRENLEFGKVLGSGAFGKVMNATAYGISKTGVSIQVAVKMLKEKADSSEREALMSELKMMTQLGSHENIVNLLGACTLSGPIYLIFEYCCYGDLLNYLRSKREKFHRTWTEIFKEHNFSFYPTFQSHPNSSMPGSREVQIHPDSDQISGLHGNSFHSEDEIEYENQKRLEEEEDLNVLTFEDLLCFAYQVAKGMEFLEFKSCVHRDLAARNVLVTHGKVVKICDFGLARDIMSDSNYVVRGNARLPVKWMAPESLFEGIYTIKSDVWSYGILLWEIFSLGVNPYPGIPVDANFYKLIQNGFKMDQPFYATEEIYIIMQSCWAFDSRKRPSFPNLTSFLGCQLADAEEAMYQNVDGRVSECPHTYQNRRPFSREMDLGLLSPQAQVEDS

CYP2C9 = CYP2C9 (Homo sapiens, UniProt P11712); assay: Inhibition of human CYP2C9 at 10 uM relative to control; assay type: ADME
MV4-11 [3] = assay: Induction of apoptosis in human MV4-11 cells at 0.17 to 17 uM after 48 hrs by annexin V/propidium iodide staining based flow cytometry; assay type: functional, cell-based
CYP2C19 = CYP2C19 (Homo sapiens, UniProt P33261); assay: Inhibition of human CYP2C19 at 10 uM relative to control; assay type: ADME
CYP2D6 = CYP2D6 (Homo sapiens, UniProt P10635); assay: Inhibition of human CYP2D6 at 10 uM relative to control; assay type: ADME
[4] = Aqueous solubility in pH 7.4 PBS buffer at 200 uM after 24 hrs by UV-visible HPLC based shake flask method; assay type: physicochemical; details: PBS buffer pH 7.4, pH 7.4
CYP3A4 = CYP3A4 (Homo sapiens, UniProt P08684); assay: Inhibition of human recombinant CYP3A4 at 10 uM by fluorimetry relative to control; assay type: ADME
Homo sapiens [5] = species on record: Homo sapiens; assay: Selectivity ratio of IC50 for human N-terminal GST-tagged TRKA cytoplasmic domain (436 to 790 residues) expressed in baculovirus expression system to IC50 for human N-terminal GST-tagged FLT3 cytoplasmic domain (564 to 993 residues) expressed in baculovirus expression system
[6] = Permeability from apical to basolateral side in human Caco2 cells at 10 uM after 60 mins by HPLC-MS/MS analysis; assay type: ADME, cell-based; details: Caco-2, read-out: permeability
[7] = Metabolic stability in human liver microsomes assessed as parent compound remaining at 1 uM after 1 hr; assay type: ADME; details: read-out: Stability
[8] = molecular target: Mitogen-activated protein kinase kinase kinase kinase 4 (Homo sapiens, UniProt O95819); assay: Inhibition of human N-terminal GST-tagged HGK catalytic domain (1 to 328 residues) expressed in baculovirus expression system using fluorescence labelled moesin-derived peptide substrate by electrophoretic mobility shift assay
[9] = Growth inhibition of human WI38 cells after 48 hrs by CCK8 assay; assay type: cell-based; details: WI-38, 48 h
[10] = molecular target: Receptor-type tyrosine-protein kinase FLT3 (Homo sapiens) (UniProt P36888); assay: Inhibition of FLT3 autophosphorylation at Tyr-596 in human MV4-11 cells after 1.5 hrs by Western blot analysis; assay type: cell-based
CYP1A2 = CYP1A2 (Homo sapiens, UniProt P05177); assay: Inhibition of human recombinant CYP1A2 using CEC as substrate at 10 uM after 30 mins by fluorimetry relative to control; assay type: ADME; details: recombinant CYP1A2, probe CEC
Homo sapiens [11] = species on record: Homo sapiens; assay: Selectivity ratio of IC50 for human N-terminal GST-tagged HGK catalytic domain (1 to 328 residues) expressed in baculovirus expression system to IC50 for human N-terminal GST-tagged FLT3 cytoplasmic domain (564 to 993 residues) expressed in baculovirus expression system
MV4-11 [12] = assay: Growth inhibition of human MV4-11 cells harboring FLT3-ITD after 48 hrs by CCK8 assay; assay type: functional, cell-based; details: MV4-11, 48 h
[13] = molecular target: High affinity nerve growth factor receptor (Homo sapiens, UniProt P04629); assay: Inhibition of human N-terminal GST-tagged TRKA cytoplasmic domain (436 to 790 residues) expressed in baculovirus expression system using fluorescence labelled CSKtide as substrate by electrophoretic mobility shift assay
High affinity nerve growth factor receptor, sequence (P04629 whole entry, the tested form may be a part): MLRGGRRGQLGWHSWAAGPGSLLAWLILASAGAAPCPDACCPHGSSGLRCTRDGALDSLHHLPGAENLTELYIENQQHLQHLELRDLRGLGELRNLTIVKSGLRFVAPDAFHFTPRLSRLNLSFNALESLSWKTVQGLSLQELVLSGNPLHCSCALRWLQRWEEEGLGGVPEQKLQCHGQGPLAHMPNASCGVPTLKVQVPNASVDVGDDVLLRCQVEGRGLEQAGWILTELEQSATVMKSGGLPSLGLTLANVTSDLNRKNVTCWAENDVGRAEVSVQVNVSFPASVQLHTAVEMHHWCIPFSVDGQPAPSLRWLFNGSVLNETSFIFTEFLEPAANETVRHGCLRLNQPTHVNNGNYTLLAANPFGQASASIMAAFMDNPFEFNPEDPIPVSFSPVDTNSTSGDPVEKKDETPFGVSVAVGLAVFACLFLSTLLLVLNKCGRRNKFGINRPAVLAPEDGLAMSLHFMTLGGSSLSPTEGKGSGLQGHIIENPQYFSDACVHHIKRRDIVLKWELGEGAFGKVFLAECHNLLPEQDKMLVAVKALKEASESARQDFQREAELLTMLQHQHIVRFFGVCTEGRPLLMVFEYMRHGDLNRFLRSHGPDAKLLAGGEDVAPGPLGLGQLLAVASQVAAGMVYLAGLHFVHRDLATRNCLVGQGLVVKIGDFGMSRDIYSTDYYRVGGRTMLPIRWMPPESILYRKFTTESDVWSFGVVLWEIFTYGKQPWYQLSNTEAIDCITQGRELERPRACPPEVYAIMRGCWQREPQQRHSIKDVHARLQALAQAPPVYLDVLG

Mitogen-activated protein kinase kinase kinase kinase 4, sequence (O95819 whole entry, the tested form may be a part): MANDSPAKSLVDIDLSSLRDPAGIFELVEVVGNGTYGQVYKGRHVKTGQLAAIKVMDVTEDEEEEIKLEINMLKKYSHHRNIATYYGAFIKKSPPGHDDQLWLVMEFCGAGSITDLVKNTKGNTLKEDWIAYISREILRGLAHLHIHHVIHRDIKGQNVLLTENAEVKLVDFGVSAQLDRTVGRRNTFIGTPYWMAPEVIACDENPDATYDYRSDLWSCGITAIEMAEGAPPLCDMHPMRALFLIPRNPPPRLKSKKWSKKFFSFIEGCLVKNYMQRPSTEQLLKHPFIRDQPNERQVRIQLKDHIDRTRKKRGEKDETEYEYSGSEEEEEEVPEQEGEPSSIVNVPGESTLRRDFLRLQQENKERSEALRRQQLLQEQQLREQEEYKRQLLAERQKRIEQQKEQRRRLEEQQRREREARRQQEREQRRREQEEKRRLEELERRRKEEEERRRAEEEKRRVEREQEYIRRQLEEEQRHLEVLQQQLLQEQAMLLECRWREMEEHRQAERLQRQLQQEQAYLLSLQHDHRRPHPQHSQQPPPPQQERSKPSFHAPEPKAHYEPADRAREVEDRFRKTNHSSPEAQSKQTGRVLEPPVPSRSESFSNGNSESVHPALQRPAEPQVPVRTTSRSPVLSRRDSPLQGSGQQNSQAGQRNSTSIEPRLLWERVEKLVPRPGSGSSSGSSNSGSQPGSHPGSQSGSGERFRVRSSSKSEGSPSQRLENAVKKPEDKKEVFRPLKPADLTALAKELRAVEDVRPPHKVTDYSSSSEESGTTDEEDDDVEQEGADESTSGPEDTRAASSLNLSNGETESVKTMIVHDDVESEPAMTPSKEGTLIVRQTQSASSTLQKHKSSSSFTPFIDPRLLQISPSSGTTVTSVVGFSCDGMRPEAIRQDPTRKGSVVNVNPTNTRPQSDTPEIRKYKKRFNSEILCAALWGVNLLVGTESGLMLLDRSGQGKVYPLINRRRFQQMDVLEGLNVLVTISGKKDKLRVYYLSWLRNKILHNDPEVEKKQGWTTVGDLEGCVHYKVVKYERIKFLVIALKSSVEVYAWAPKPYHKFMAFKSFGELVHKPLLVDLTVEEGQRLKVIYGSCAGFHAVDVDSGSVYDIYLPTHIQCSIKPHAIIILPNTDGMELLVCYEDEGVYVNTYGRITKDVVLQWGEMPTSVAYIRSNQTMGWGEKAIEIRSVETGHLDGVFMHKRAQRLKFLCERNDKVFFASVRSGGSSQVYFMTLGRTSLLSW
CYP3A4, sequence (P08684 whole entry, the tested form may be a part): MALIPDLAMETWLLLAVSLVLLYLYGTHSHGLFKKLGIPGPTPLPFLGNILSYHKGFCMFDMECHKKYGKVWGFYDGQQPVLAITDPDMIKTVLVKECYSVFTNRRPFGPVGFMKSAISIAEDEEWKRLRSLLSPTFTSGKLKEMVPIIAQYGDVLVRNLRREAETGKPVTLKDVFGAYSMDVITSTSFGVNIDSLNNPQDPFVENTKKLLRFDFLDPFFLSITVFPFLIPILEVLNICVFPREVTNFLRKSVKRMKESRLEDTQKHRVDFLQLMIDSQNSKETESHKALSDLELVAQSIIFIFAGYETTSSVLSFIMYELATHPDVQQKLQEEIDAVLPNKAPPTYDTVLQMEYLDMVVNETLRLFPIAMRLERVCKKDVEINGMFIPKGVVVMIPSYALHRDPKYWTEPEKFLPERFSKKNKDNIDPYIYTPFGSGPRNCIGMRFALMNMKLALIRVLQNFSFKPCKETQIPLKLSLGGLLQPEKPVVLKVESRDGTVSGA
CYP1A2, sequence (P05177 whole entry, the tested form may be a part): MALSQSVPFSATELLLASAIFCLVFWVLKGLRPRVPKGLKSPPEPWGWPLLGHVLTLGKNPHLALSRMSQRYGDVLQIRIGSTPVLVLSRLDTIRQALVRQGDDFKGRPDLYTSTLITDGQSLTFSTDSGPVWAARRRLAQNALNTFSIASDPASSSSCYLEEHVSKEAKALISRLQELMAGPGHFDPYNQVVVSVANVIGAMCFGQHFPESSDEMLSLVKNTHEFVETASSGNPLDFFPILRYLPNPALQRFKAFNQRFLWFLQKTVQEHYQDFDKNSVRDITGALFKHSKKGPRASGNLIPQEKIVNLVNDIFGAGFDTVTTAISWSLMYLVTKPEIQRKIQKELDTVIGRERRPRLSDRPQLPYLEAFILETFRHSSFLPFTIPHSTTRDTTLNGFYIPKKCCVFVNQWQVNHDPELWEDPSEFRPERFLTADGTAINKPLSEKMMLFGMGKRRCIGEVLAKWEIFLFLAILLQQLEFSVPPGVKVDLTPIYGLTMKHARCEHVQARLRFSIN
CYP2D6, sequence (P10635 whole entry): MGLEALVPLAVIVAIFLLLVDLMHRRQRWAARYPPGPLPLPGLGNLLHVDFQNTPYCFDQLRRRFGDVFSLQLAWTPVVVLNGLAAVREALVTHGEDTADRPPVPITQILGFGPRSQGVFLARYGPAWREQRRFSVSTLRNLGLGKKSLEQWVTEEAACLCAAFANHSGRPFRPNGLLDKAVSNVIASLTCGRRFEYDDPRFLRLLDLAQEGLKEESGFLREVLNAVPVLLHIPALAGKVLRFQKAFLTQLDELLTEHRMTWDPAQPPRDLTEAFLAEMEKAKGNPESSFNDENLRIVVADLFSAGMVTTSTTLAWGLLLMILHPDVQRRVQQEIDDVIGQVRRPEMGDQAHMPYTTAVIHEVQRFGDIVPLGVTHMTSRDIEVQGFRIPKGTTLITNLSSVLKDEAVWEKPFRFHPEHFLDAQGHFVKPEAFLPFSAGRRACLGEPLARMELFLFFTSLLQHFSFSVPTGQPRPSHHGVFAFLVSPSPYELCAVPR
CYP2C9, sequence (P11712 whole entry): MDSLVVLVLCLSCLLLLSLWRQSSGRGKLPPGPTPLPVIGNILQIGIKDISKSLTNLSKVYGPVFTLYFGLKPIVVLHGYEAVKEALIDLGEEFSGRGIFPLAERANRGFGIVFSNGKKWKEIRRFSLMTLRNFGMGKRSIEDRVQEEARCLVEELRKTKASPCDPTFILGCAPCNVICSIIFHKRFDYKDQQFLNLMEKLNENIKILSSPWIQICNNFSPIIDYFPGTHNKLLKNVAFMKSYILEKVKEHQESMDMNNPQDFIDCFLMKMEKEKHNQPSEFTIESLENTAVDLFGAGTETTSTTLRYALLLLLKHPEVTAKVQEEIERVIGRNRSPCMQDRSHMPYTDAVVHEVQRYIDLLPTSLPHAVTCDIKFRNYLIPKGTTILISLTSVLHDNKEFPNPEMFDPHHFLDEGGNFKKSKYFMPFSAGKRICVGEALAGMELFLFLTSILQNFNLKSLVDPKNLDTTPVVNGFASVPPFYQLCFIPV
CYP2C19, sequence (P33261 whole entry): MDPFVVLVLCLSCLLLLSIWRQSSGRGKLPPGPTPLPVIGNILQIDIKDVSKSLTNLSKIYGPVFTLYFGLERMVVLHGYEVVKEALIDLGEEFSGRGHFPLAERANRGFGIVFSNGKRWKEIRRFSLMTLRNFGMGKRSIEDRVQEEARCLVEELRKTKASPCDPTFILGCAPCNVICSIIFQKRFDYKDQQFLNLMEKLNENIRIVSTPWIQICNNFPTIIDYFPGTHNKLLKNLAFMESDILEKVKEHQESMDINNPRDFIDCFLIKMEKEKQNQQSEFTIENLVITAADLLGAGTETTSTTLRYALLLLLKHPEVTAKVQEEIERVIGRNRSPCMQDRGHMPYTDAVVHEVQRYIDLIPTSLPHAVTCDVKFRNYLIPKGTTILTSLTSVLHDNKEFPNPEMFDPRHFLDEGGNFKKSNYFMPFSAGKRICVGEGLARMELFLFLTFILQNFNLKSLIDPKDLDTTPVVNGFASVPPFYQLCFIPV

Structure (SMILES) | inhibition [1] [%] | IC50 [2] [nM] | inhibition at 10 µM (CYP2C9) [%] | Activity (MV4-11 [3]) | inhibition at 10 µM (CYP2C19) [%] | inhibition at 10 µM (CYP2D6) [%] | solubility thermodynamic at 24 h, 200 µM [4] [µM] | inhibition at 10 µM (CYP3A4) [%] | Ratio IC50 (Homo sapiens [5]) | Papp A→B at 1 h, 10 µM [6] [×10⁻⁶ cm/s] | remaining at 1 h, 1 µM [7] [%] | IC50 [8] [nM] | IC50 [9] [nM] | inhibition [10] | inhibition at 0.5 h, 10 µM (CYP1A2) [%] | Ratio IC50 (Homo sapiens [11]) | IC50 (MV4-11 [12]) [nM] | IC50 [13] [nM]
O=C(Nc1ccc(C(=O)N2CCN(c3ccccc3)CC2)cc1)c1n[nH]c2ccccc12 | 99.7 | 23 | – | – | – | – | – | – | – | – | – | – | – | – | – | – | – | –
O=C(Nc1ccc(CN2CCN(c3ccccc3)CC2)cc1)c1n[nH]c2ccccc12 | 100 | 9 | 36 | Active | 57 | 62 | 3 (≈ 1.23 µg/mL) | 48 | 15 | 4 | 50 | 410 | > 10000 | Dose-dependent effect | 36 | 45 | 164 | 137
O=C(Nc1ccccc1)c1n[nH]c2ccccc12 | 96.7 | 350 | – | – | – | – | – | – | – | – | – | – | > 10000 | – | – | – | 7700 | –
